These results are taken from patent EP0516157A1, “Preparation of 6-0-alkylelsamicin A derivatives” (priority 1991, dated 1992).

For series [1], the system named is melanoma B16. Briefly: In vivo antitumor activity against B16 melanoma in mice. As to conditions: B16, male BDF1 mice, Q4Dx3 ip. The method, then: (§1) In vivo antitumor activity of the above fifteen derivatives was tested in the lymphocytic leukemia P388 and melanoma B16 systems. Female CDF₁ (for P388) and male BDF₁ (for B16) mice were inoculated by ip injection at 10⁶ P388 cells and 0.5 ml of a 10% B16 brei per mouse, respectively (day 0). […] The percent increase of median survival time (MST) of treated animals over that of untreated control animals was determined and reported as T/C %. Compounds showing T/C % values of 125 or greater are considered to have significant antitumor activity.

The test system of series [2] is murine melanoma B16-F10 cells.
Protocol: (§2) For in vitro cytotoxicity experiment, murine melanoma B16-F10 cells were grown and maintained in Eagle's minimum essential medium (Nissui), which contains kanamycin (60 µg/ml), supplemented with heat-inactivated fetal calf serum (10%) and nonessential amino acids (0.6%) at 37°C under a humidified atmosphere in a 5% CO₂ incubator. Exponentially growing B16-F10 cells were harvested, counted and suspended in the culture medium at the concentration of 2.0x10⁴ cells/ml. The cell suspension (180 µl) was planted into wells of a 96-well microtiter plate and incubated for 24 hours. Test compounds (20 µl) were added to the wells and the plates were further incubated for 72 hours. The cytotoxic activity was colorimetrically determined at 540 nm after staining viable cells with neutral red solution.
Series [3] deals with lymphocytic leukemia P388. Briefly: In vivo antitumor activity against P388 leukemia in mice. The following applies: for T/C % of MST: P388, female CDF1 mice, Q1Dx3 ip; for anti-P388 activity compared with elsamicin A / toxicity compared with elsamicin A: P388 system, in words. As to the method:
as §1

Series [4] has as its system murine melanoma B16-F10 cells. The series is described as follows: In vitro cytotoxicity, neutral red staining after 72 hours. As to conditions: 72 hours incubation.
Protocol: as §2

As to `CCOc1c2cccc(OC3OC(C)C4OC(C)(C)OC4(C)C3OC3OC(C)C(O)C(OC)C3N)c2c2oc(=O)c3c(C)ccc4oc(=O)c1c2c43` (stereo not drawn) [Compound 8b, 6-O-Ethyl-3'4'-O-isopropylideneelsamicin A], the “T/C % of MST” value in series [1] (0.1 mg/kg/day) stood at 97%; in series [1] (0.3 mg/kg/day) it was 106%; in series [1] (1 mg/kg/day), 119%; in series [1] (3 mg/kg/day), 153%; in series [1] (10 mg/kg/day), 216%; in series [3] (0.1 mg/kg/day), 110%. The “T/C % of MST” value in series [3] (0.3 mg/kg/day) was found to be 125%; in series [3] (1 mg/kg/day), 125%; in series [3] (3 mg/kg/day), 140%; in series [3] (10 mg/kg/day) it was 190%; in series [3] (20 mg/kg/day), 200%. Also, the “cytotoxicity compared with the parent compound” value in series [2] is on record as “approximately equipotent cytotoxicity to the parent compound”. Further, in series [3], the “anti-P388 activity compared with elsamicin A” value is “as active as elsamicin A”. Besides, the “toxicity compared with elsamicin A” value in series [3] is listed as “seemed to be less toxic”. In series [4], the “Cytotoxicity IC50” value turned out to be 0.06 µg/mL.
With `CCCCOc1c2cccc(OC3OC(C)C(O)C(C)(O)C3OC3OC(C)C(O)C(OC)C3N)c2c2oc(=O)c3c(C)ccc4oc(=O)c1c2c43` (stereo not drawn) [Compound 7e, 6-O-n-Butylelsamicin A], the “T/C % of MST” value in series [1] (0.3 mg/kg/day) worked out at 123%; in series [1] (1 mg/kg/day), 127%; in series [1] (3 mg/kg/day), 160%; in series [1] (10 mg/kg/day), 213%; in series [3] (0.1 mg/kg/day), 110%; in series [3] (0.3 mg/kg/day), 124%. Also, the “T/C % of MST” value in series [3] (1 mg/kg/day) is listed as 133%; in series [3] (3 mg/kg/day), 152%; in series [3] (10 mg/kg/day), 162%; in series [3] (20 mg/kg/day), 141%; in series [3] (40 mg/kg/day), 164%. In addition, in series [2], the “cytotoxicity compared with the parent compound” value is “approximately equipotent cytotoxicity to the parent compound”. Besides, the “anti-P388 activity compared with elsamicin A” value in series [3] was “as active as elsamicin A”. Besides, in series [3], the “toxicity compared with elsamicin A” value is recorded as “seemed to be less toxic”. For the same compound, in series [4], the “Cytotoxicity IC50” value was 0.03 µg/mL.
